These results are taken from ChEMBL document CHEMBL1121376, “Antihypertensive (2-aminoethyl)thiourea derivatives. 2” (1980).

Experiment [1] concerns Rattus norvegicus. Put plainly: Evaluation of decrease in heart rate (antihypertensive activity) in spontaneously hypertensive rats after 3-6h 0f peroral dose of 100 mg /kg. Type of experiment: functional.
The subject of experiment [2] is Rattus norvegicus. Put plainly: Evaluation of antihypertensive activity in spontaneously hypertensive rats at peroral dose of 10, 30,100 mg /kg. The experiment is classed as functional.
The subject of experiment [3] is Canis familiaris. Put plainly: Evaluation of antihypertensive activity renally hypertensive dog at dose 10,30,100mg/kg(po); Inactive. The experiment is classed as functional, organism-based. Conditions: Canis lupus familiaris.
For experiment [4], the system named is Rattus norvegicus. The experiment in a line: Evaluation of antihypertensive activity in DOCA/salt hypertensive rats at peroral dose of 10,30,100 mg /kg; value ranges from 12-20%. The experiment is classed as functional.
For experiment [5], the system named is Rattus norvegicus. Put plainly: Evaluation of antihypertensive activity in DOCA/salt hypertensive rats at peroral dose of 10 mg/kg; no effect on HR; Inactive. Also on record: dose 10 mg/kg. The experiment is classed as functional, organism-based.
Experiment [6] deals with Canis familiaris. Put plainly: Evaluation of antihypertensive activity renally hypertensive dog at dose 10 mg/kg. Type of experiment: functional, Canis lupus familiaris.

The source made the active and inactive calls. No cut-off for these calls is given here.

On to `NCC/N=C(\S)Nc1c(Cl)cccc1Cl`, for which the “Reduction in heart rate” value in the experiment on Rattus norvegicus [1] was determined as 12.7%. The “Reduction in blood pressure” value with Rattus norvegicus [2] amounted to 12.7%. In addition, the “Reduction in arterial blood pressure” value in the experiment with Canis familiaris [3] and with Rattus norvegicus [5] was “inactive” each time. Besides, the “Decrease in blood pressure” value in the experiment on Rattus norvegicus [4] is reported as 12%. In the experiment on Canis familiaris [6], the “Reduction in arterial blood pressure” value is 7%.
